Earlier results, collected in US6558704B1, “Process for preparing pellets containing up to 90 wt.% of a pharmaceutical active ingredient” (Gruenenthal GmbH, priority 1999, dated 2003).
Structures can show the parent of a compound that is named as a salt.

Compound	solubility in water [mg/mL]
CN(C)CCCN1c2ccccc2Sc2ccc(Cl)cc21 [chlorpromazine hydrochloride]	2500
Cc1c(N(C)CS(=O)(=O)[O-])c(=O)n(-c2ccccc2)n1C.[Na+] [metamizol-Na]	> 1000
